Measured values: patent US11945821B1, “5-substituted aminopyrazino[2′,1′:2,3]imidazo[4,5-C][2,7]naphthyridine compounds as CK2 inhibitors” (KING FAISAL UNIVERSITY, priority 2023, dated 2024)

Columns and labels:
MDA-MB-231 (breast) = test: In vitro cytotoxic activity (MTT) assay, MDA-MB-231; format: cell-based; conditions: Homo sapiens; MDA-MB-231 cells, exposed for 96 hours; read-out: IC50, 50% inhibition of cell proliferation, MDA-MB-231 (breast)
Experimental: (§1) Compounds 1-12 were screened for their in vitro cytotoxic activity utilizing a 3-(4,5-dimethyl-thiazol-2-yl)-2,5-diphenyltetrazolium bromide (MTT) assay against selected cancer human cell lines consisting of PC3 (prostate), HCT116 (colon), A375 (melanoma), H1299 (lung), MIAPaCa-2 (pancreas), HL60 (leukemia), MCF7 (breast), MDA-MB-231 (breast) (T. Mosmann, J. Immunol. Meth., 1983, 65, 55-63). The cells were cultured at 37° C. in RMPI1640 medium supplemented with 10% fetal bovine serum, 50 IU/mL penicillin, and 50 μg/mL streptomycin in a 5% CO2 incubator. All cells were sub-cultured 3 times/week by trypsinisation. Viable cells were seeded and allowed to adhere for 12 h before a test drug was added in 96-well plates at an initial density of 1.0×10^5 cells/mL. Tumour cell lines were separately exposed to various concentrations of the tested compounds followed by incubation at a temperature of 37° C. during 96 h inside a medium of fresh RMPI 1640. Cells were subsequently incubated at 37° C. using MTT at 0.5 mg/mL during 4 h. After removal of supernatant, formazan crystals were dissolved in isopropanol and the optical density was measured at 570 nm. CX-4945 was used as a positive control.

[1] = target: T1, recombinant human CK2 (RRββ-holoenzyme) (Homo sapiens, UniProt P68400); test: CK2 Kinase Assay (33P-ATP, filter plate); format: biochemical; conditions: final ATP 15 μM, 10 min at 30° C., eight concentrations; read-out: protein kinase CK2 IC50
T1 construct: purchased Millipore
T1 sequence (P68400 whole entry): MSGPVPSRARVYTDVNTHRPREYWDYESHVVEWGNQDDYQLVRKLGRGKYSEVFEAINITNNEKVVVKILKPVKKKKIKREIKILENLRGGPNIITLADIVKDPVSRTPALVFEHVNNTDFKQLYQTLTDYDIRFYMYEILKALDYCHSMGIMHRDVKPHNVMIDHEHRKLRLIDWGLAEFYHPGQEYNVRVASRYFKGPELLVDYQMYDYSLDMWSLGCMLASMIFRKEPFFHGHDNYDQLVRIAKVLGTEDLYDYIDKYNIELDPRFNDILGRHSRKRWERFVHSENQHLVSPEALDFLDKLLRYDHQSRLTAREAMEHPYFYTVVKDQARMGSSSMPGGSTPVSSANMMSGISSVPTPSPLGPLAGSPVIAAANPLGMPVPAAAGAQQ
T1 sequence (P67870 whole entry partner): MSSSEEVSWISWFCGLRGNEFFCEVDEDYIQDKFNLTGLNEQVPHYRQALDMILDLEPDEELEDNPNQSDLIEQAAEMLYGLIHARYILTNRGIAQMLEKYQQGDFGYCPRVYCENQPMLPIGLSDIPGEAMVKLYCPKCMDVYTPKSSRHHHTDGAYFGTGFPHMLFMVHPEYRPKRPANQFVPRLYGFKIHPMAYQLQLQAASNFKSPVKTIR
Experimental: CK2 Kinase Assay was conducted using the protocol as described in Pierre F. et al; J. Med. Chem. 2011, 54, 635-654. The tested compounds in aqueous solution were added at a volume of 10 μL to a reaction mixture comprising 10 μL of assay dilution buffer (ADB; 20 mM MOPS, pH 7.2, 25 mM β-glycerol phosphate, 5 mM EGTA, 1 mM sodium orthovanadate, and 1 mM dithiothreitol), 10 μL of substrate peptide (RRRDDDSDDD, dissolved in ADB at a concentration of 1 mM), 10 μL of recombinant human CK2 (RRββ-holoenzyme, 25 ng dissolved in ADB; Millipore). Reactions were initiated by the addition of 10 μL of ATP solution (90% 75 mMMgCl2, 75 μM ATP (final ATP concentration:15 μM) dissolved in ADB; 10% [γ-33P] ATP (stock 1 mCi/100 μL; 3000 Ci/mmol (Perkin-Elmer) and maintained for 10 min at 30° C. The reactions were quenched with 100 μL of 0.75% phosphoric acid and then transferred to and filtered through a phosphor cellulose filter plate (Millipore). After washing each well five times with 0.75% phosphoric acid, the plate was dried under vacuum for 5 min and, following the addition of 15 μL of scintillation fluid to each well, the residual radioactivity was measured using a Wallac luminescence counter. The IC50 values were derived from eight concentrations of test inhibitors.

H1299 (lung) = test: In vitro cytotoxic activity (MTT) assay, H1299; format: cell-based; conditions: Homo sapiens, NCI-H1299; H1299 cells, exposed for 96 hours; read-out: IC50, 50% inhibition of cell proliferation, H1299 (lung)
Experimental: as §1

HCT116 (colon) = test: In vitro cytotoxic activity (MTT) assay, HCT116; format: cell-based; conditions: Homo sapiens, HCT-116; HCT116 cells, exposed for 96 hours; read-out: IC50, 50% inhibition of cell proliferation, HCT116 (colon)
Experimental: as §1

A375 (melanoma) = test: In vitro cytotoxic activity (MTT) assay, A375; format: cell-based; conditions: Homo sapiens, A-375; A375 cells, exposed for 96 hours; read-out: IC50, 50% inhibition of cell proliferation, A375 (melanoma)
Experimental: as §1

HL60 (leukemia) = test: In vitro cytotoxic activity (MTT) assay, HL60; format: cell-based; conditions: Homo sapiens, HL-60; HL60 cells, exposed for 96 hours; read-out: IC50, 50% inhibition of cell proliferation, HL60 (leukemia)
Experimental: as §1

MCF7 (breast) = test: In vitro cytotoxic activity (MTT) assay, MCF7; format: cell-based; conditions: Homo sapiens; MCF7 cells, exposed for 96 hours; read-out: IC50, 50% inhibition of cell proliferation, MCF7 (breast)
Experimental: as §1

PC3 (prostate) = test: In vitro cytotoxic activity (MTT) assay, PC3; format: cell-based; conditions: Homo sapiens, PC-3; PC3 cells, exposed for 96 hours; read-out: IC50, 50% inhibition of cell proliferation, PC3 (prostate)
Experimental: as §1

MIAPaCa-2 (pancreas) = test: In vitro cytotoxic activity (MTT) assay, MIAPaCa-2; format: cell-based; conditions: Homo sapiens, MIA PaCa-2; MIAPaCa-2 cells, exposed for 96 hours; read-out: IC50, 50% inhibition of cell proliferation, MIAPaCa-2 (pancreas)
Experimental: as §1

Clc1cccc(Nc2nc3c(nc4cnccn43)c3ccncc23)c1 [Example 1, N-(3-chlorophenyl)pyrazino[2′,1′:2.3]imidazo[4,5-c][2.7]naphthyridin-5-amine]
IC50 (MDA-MB-231 (breast)): 4100 nM
IC50 [1]: 22 nM
IC50 (H1299 (lung)): 1900 nM
IC50 (HCT116 (colon)): 2100 nM
IC50 (A375 (melanoma)): 3300 nM
IC50 (HL60 (leukemia)): 3900 nM
IC50 (MCF7 (breast)): 4800 nM
IC50 (PC3 (prostate)): 1800 nM
IC50 (MIAPaCa-2 (pancreas)): 1200 nM
